These results are taken from publication PMC7168933, “Design, Synthesis and Biochemical Evaluation of Novel Ethanoanthracenes and Related Compounds to Target Burkitt’s Lymphoma” (Pharmaceuticals, 2020).

The structures appear in SMILES notation.

The test system of data set [1] is DG-75 Burkitt's lymphoma cell line. In words: FITC Annexin V/PI FACS analysis of apoptosis in DG-75 cells. It is filed as cell-based. The conditions noted are these: 48 h. The method, then: (§1) BL cells DG-75 and MUTU-1 (750,000) were treated with the specified concentration of the selected compound and incubated for 24 h (MUTU-1) or 48 h (DG-75) with taxol as the positive control. Samples were harvested by centrifugation and the pellets were rinsed with 0.5 mL of Ca^2+ Annexin V binding buffer (0.1 M HEPES, pH 7.4; 1.4 M NaCl; 25 mM CaCl2) each and pelleted again by centrifugation. Supernatants were decanted and the pellets were suspended again in 50 µL FITC Annexin V (diluted 1:33 in Ca^2+ Annexin V binding buffer), the samples were then placed on ice and incubated for 10 min in the dark. After the incubation period 0.5 mL of Ca^2+ Annexin V binding buffer was added and samples were pelleted by centrifugation. The supernatant was decanted and the pellet was suspended in PI solution (500 µL; 0.5 µg/mL). After 1 h, the samples were recorded using a CyAn ADP flow cytometer (Beckman Coulter Inc., Brea, CA, USA). 10,000 cells were analysed with the Flowjo software package. Taxol was used as a positive control for cell death.
For orientation: In flow cytometry, cells or beads pass a laser one at a time.

The subject of data set [2] is MUTU-1 Burkitt lymphoma cell line (EBV+). The following applies: 24 h.
The test system of data set [3] is DG-75 Burkitt lymphoma cell line (EBV−, chemoresistant). The conditions noted are these: 48 h.
In data set [4] the test system is MUTU-1 Burkitt lymphoma cell line (EBV+). In words: cells. The following applies: Mutu-1, 24 h; for IC50: read-out: IC50 MUTU-I 24 h; for viability at 1 µM: read-out: MUTU-1 Cell Viability % 1 μM, 1 μM, 24 h; for viability at 10 µM: read-out: MUTU-1 Cell Viability % 10 μM, 10 μM, 24 h.
Data set [5] relates to MUTU-1 Burkitt's lymphoma cell line. In words: FITC Annexin V/PI FACS analysis of apoptosis in MUTU-I cells. The data set is classed as cell-based. The conditions noted are these: 24 h. The method, then: as §1
The test system of data set [6] is DG-75 Burkitt lymphoma cell line (EBV−, chemoresistant). Nature of the data set: cells. The conditions noted are these: Homo sapiens, DG-75, 48 h; for viability at 1 µM: read-out: DG-75 Cell Viability % 1 μM, 1 μM, 48 h; for viability at 10 µM: read-out: DG-75 Cell Viability % 10 μM, 10 μM, 48 h; for IC50: read-out: IC50 DG-75 48 h.

Regarding `CC(=O)O[C@H]1C(=O)[C@@]2(C)[C@H]([C@H](OC(=O)c3ccccc3)[C@]3(O)C[C@H](OC(=O)[C@H](O)[C@@H](NC(=O)c4ccccc4)c4ccccc4)C(C)=C1C3(C)C)[C@]1(OC(C)=O)CO[C@@H]1C[C@@H]2O` [Taxol, taxol, reference compound], in data set [1], the “apoptosis in DG-75 at 1 µM” value amounted to 21% and the “apoptosis in DG-75 at 10 µM” value worked out at 73%. The “MUTU-1 Cell Viability % 10 μM” value in data set [2] is 9.8%. Besides, the “DG-75 Cell Viability % 10 μM” value in data set [3] is given as 9.9%. In data set [4], the IC50 (as a rule, the concentration that gives 50% inhibition) was 320 nM; the viability (usually a read-out of living cells in per cent, often relative to untreated cells) at 1 µM stood at 30.4%; the viability at 10 µM came to 10%. In addition, in data set [5], the “apoptosis in MUTU-I at 1 µM” value is 63% and the “apoptosis in MUTU-I at 10 µM” value was 87%. For the same compound, in data set [6], the viability at 1 µM was 48.8%, the viability at 10 µM came to 10% and the IC50 amounted to 1320 nM.

Regarding `O=C1C2C(C(=O)N1c1ccccc1)C1(/C=C/[N+](=O)[O-])c3ccccc3C2(Cl)c2ccccc21` (centres unmarked) [Compound 16d, (E)-9-Chloro-10-(2-nitrovinyl)-13-phenyl-9,10-dihydro-9,10-[3,4]epipyrroloanthracene-12,14-dione], in data set [1], the “apoptosis in DG-75 at 1 µM” value stood at 15% and the “apoptosis in DG-75 at 10 µM” value was 44%. Besides, the “cell viability in MUTU-I cell line (1 and 10 μM together or concentration not stated)” value in data set [2] is 0.4–13.5%. For the same compound, in data set [3], the “DG-75 Cell Viability % 1 μM” value is reported as 13.5%; the “cell viability in DG-75 cell line (1 and 10 μM together or concentration not stated)” value is 0.4–13.5%. For the same compound, in data set [4], the half-inhibitory concentration (IC50) turned out to be 220 nM, the viability at 1 µM was 0.77% and the viability at 10 µM was found to be 0.41%. Besides, the “apoptosis in MUTU-I at 0.2 µM” value in data set [5] (0.2 µM) came to 63%. Moreover, in data set [6], the viability at 1 µM is less than 14%, the viability at 10 µM was 5.1% and the IC50 amounted to 590 nM.

In the case of `O=[N+]([O-])/C=C/c1c2ccccc2cc2ccccc12` [Compound 12a, (E)-9-(2-nitrovinyl)anthracene], in data set [1], the “apoptosis in DG-75 at 1 µM” value turned out to be 10% and the “apoptosis in DG-75 at 10 µM” value is on record as 82%. For the same compound, the “MUTU-1 Cell Viability % 10 μM” value in data set [2] was determined as 5.9%. For the same compound, the “DG-75 Cell Viability % 10 μM” value in data set [3] came to 14.0%. In data set [4], the IC50 amounted to 2570 nM and the viability at 1 µM stood at 81.9%. Moreover, in data set [5], the “apoptosis in MUTU-I at 1 µM” value is on record as “little effect” and the “apoptosis in MUTU-I at 10 µM” value worked out at 90%. Also, in data set [6], the viability at 1 µM came to 94.6%, the viability at 10 µM is less than 14% and the IC50 was found to be 2080 nM.

In the case of `C/C(=C\C12c3ccccc3C(c3ccccc31)C1C(=O)OC(=O)C12)[N+](=O)[O-]` (centres unmarked) [Compound 13b, (E)-9-(2-Nitroprop-1-en-1-yl)-9,10-dihydro-9,10-[3,4]furanoanthracene-12,14-dione], the melting point (as a rule, the temperature, or range, at which the solid turns liquid) is 256 to 258 °C. Also, in data set [2], the “cell viability in MUTU-I cell line (1 and 10 μM together or concentration not stated)” value is reported as 7–24%. Besides, the “DG-75 Cell Viability % 1 μM” value in data set [3] is listed as 1.1%. In data set [4], the viability at 1 µM amounted to 11.7% and the viability at 10 µM amounted to 7.2%. In data set [6], the viability at 1 µM came to 1% and the viability at 10 µM came out at 0.47%.

For the compound `O=C1NC(=O)C2C1C1(Cl)c3ccccc3C2(C=C[N+](=O)[O-])c2ccccc21` (centres unmarked) [Compound 13j, (E)-9-Chloro-10-(2-nitrovinyl)-9,10-dihydro-9,10-[3,4]epipyrroloanthracene-12,14-dione], in data set [1], the “apoptosis in DG-75 at 10 µM” value is recorded as 90%. In data set [2] (1 μM), the “MUTU-1 Cell Viability % 1 μM” value stood at 0.70%. Besides, the “cell viability in MUTU-I cell line (1 and 10 μM together or concentration not stated)” value in data set [2] is 0.4–13.5%. In addition, the “cell viability in DG-75 cell line (1 and 10 μM together or concentration not stated)” value in data set [3] is reported as 0.4–13.5%. For the same compound, in data set [4], the half-inhibitory concentration (IC50) was found to be 250 nM, the viability at 1 µM was less than 1% and the viability at 10 µM worked out at 0.62%. Also, in data set [5] (0.5 µM), the “apoptosis in MUTU-I at 0.5 µM” value is reported as greater than 90%. In addition, in data set [6], the viability at 1 µM is 12.1%, the viability at 10 µM was determined as 5.9% and the half-inhibitory concentration (IC50) turned out to be 780 nM.
